Test results taken from US10544156B2, “Hemi-synthetic trilobine analogs for use as a drug” (PIERRE FABRE MEDICAMENT, priority 2015, dated 2020).

Key:
[1] = test system: P16 promoter in colon cancer cells HCT116; assay: C5 DNA methylation analysis of CDKN2A (P16) promoter by COBRA; assay type: cell-based, human; details: at 0.1 μM
Procedure: Cancer cell lines (colon HCT116 or leukaemia KG1) were treated with the compounds as indicated in the Data Tables and then analysed as following.
DNA was isolated from cultured cells using the DNeasy Blood and Tissue Kit according to the manufacturer's specifications (Qiagen). DNA bisulphite conversion was performed on 2 μg of DNA using the EZ DNA Methylation-Gold Kit according to the manufacturer's specifications (Zymo Research) and bisulfited DNA was eluted with 10 μL of water.
Two different techniques were used to analyse the DNA methylation profile after bisulfite conversion of genomic DNA: (A) cloning and sequencing or (B) COBRA. The primers for each promoter are specified in Table 4.
This technique is a variation of bisulfite sequencing and combines bisulfite conversion based polymerase chain reaction with restriction digestion. DNA methylation levels are easily and quickly measured at fewer CpG sites than bisulfite-cloning-sequencing.
DNA amplification was set up with 100 ng eluted bisulfited DNA in 50 μL PCR reaction containing 1×PCR buffer, 2.5 mM MgCl2, 0.3 mM dNTPs, 400 nM each primer and 1.25 units EpiTaq HS (Takara) on C1000 Touch™ thermal cycler by 98° C. for 10 sec, 55° C. for 30 sec, 72° C. for 30 sec×40 cycles. 20 μL of PCR amplicons were digested in 30 μL by 2 units of BsiEI at 60° C. for 90 min. DNA fragments were migrated by 2% agarose gel electrophoresis and each band was quantified by Image Lab Software v2.0 (BioRad Laboratories).

[2] = test system: CMV promoter in KG-1-Luc cells; assay: CMV promoter analysis by NOMe-Seq (CpG methylation and chromatin accessibility); assay type: cell-based, human; details: at 5 μM, 24 h; for DNA demethylation, KG1 CMV-Luc model: methylated cytosine treated vs non treated; for Chromatin accessibility, KG1 CMV-Luc model: ratio of GpC methylation
Procedure: Using the Nucleosome Occupancy and Methylome Sequencing (NOMe-Seq) technique, the methylation status of the CMV promoter and the position of the nucleosomes on such promoter were both analysed.
NOMe-seq is a modified version of the methylation-dependent single promoter assay described by Miranda et al. (Curr Protoc Mol Biol. 2010 21.17.1-16) and the methylase-based DNA assay was performed as previously described with minor modifications. After nuclei extraction, GpC DNA methyltransferase M.CviPI (New England Biolabs) reactions were done in M.CviPI reaction buffer. GpC methyltransferase treatment was followed by DNA extraction, sodium bisulfite conversion, PCR amplification of the region of interest, cloning, and sequencing of individual clones to reveal the structure of single replicas as functional units. After treatment with the compounds or with DMSO, KG-1-Luc cells were centrifuged for 5 min at 500×g. Cell pellets were washed in ice-cold PBS, resuspended in 1 mL of ice-cold nuclei buffer [10 mM Tris (pH 7.4), 10 mM NaCl, 3 mM MgCl2, 0.1 mM EDTA, and 0.5% Nonidet P-40, plus protease inhibitors] per 2×10^6 cells, and incubated on ice for 10 min. Nuclei were recovered by centrifugation at 900×g for 5 min, washed twice in nuclei wash buffer [10 mM Tris (pH 7.4), 10 mM NaCl, […], and 0.1 mM EDTA containing protease inhibitors], and resuspended with 200 μL in 1×M.CviPI reaction buffer supplemented with 0.3 M sucrose, 160 μM SAM (New England Biolabs). 100 μL of purified genomic DNA were treated with 100 U of M.CviPI for 15 min at 37° C. in 200 μL final volume. The other part of 100 μL of purified genomic DNA were not treated with 100 U of M.CviPI but just incubated for 15 min at 37° C. to obtain CpG methylation profile. Reactions were stopped by the addition of an equal volume of stop solution [20 mM Tris.HCl (pH 7.9), 600 mM NaCl, 1% SDS, 10 mM EDTA, and 400 μg/mL Proteinase K] and incubated at 55° C. overnight. DNA was purified by phenol/chloroform extraction and ethanol precipitation. Bisulfite conversion was performed with the EZ DNA Methylation-Gold Kit (Zymo Research). Bisulfited DNA was eluted with 12 μL of water and 8 μL were used for CMV amplification.
The CMV promoter DNA amplification was carried on 8.3 μL eluted bisulfited DNA in 20 μL PCR reaction containing 1×KAPA2G Buffer A, 2.0 mM MgCl2, 200 μM dNTPs, 125 nM each primer and 1.0 units KAPA2G™ Robust HotStart DNA Polymerase (KapaBiosystems) on C1000 Touch™ thermal cycler 95° C. 3 min following by 95° C. for 20 sec, 55° C. for 30 sec, 72° C. for 30 sec×40 cycles and final extension at 72° C. 1 min. PCR fragments were quality controlled by agarose gel electrophoresis.
Steps of cloning and sequencing were as those described previously except that M13 PCR was used to amplify the cloned sequence in 20 μL PCR reaction volume containing 1×KAPA2G Buffer B, 2.0 mM MgCl2, 200 μM dNTPs, 125 nM each primer and 1.0 U KAPA2G™ Robust HotStart DNA Polymerase (KapaBiosystems) on C1000 Touch™ thermal cycler 95° C. 3 min following by 95° C. for 20 sec, 55° C. for 30 sec, 72° C. for 30 sec×40 cycles and final extension at 72° C. 1 min.
Genomic alignment and bisulfite sequence analysis was performed largely as previously described (Berman et al. Nat Genet 2012, 44, 40-6).
BISMA (Bisulfite Sequencing DNA Methylation Analysis) software was used for CpG methylation analysis of primary bisulfite sequencing data from subcloned individual molecules (Rohde et al. BMC Bioinformatics 2010, 11, 230). Methyl Viewer (Pardo et al. Nucleic Acids Res 2011, 39, e5) was used to obtain GC methylation results and nucleosome occupancy. The ratio of methylation is representative of the chromatin accessibility by M.CviPI and nucleosome occupancy. The combined methylation status for each clone by CpG (BISMA) or GpC (Methyl Viewer) site has been assembled. […]

[3] = test system: HCT116 (colorectal cancer); assay: Anti-proliferative activity (ATPLite); assay type: cell-based; details: Homo sapiens, HCT-116; daily treatment, cell viability by ATPLite; read-out: Antiproliferative activity: IC50 (μM) HCT116 (colorectal cancer)
Procedure: To measure the anti-proliferative properties of tested molecules, 2×10^4 cells are seeded at day 0 in a 96 wells plate. The compounds to be tested, stored at −20° C. as 10^−2 M stock solution in 100% DMSO, are freshly diluted on day 1 in the cell medium, before adding a dose range of 3.2 nM to 10 μM to the cells. Cells are treated everyday and cell viability assessed after 3 days or 7 days of treatment. The cell viability is assessed using the ATPLite kit from Perkin (ATPlite 1 Step Luminescence Assay System, ref 3016739), following the provider instructions. The raw data are analyzed with GraphPad Prism software (v4.03) to generate IC50 values corresponding to the compound concentrations giving 50% reduction in cell viability. The values presented are the mean results of at least two independent experiments. The standard errors are indicated.

Row | SMILES | Demethylation (COBRA) P16/HCT116 ([1]; after 7 days) | DNA demethylation, KG1 CMV-Luc model [2] | Chromatin accessibility, KG1 CMV-Luc model [2] | IC50 [3] | Demethylation (COBRA) P16/HCT116 ([1]; after 3 days) | Demethylation (COBRA) P16/HCT116 ([1]; after 21 days)
1 | CNC(=O)N1CCc2cc(OC)c3c4c2[C@@H]1Cc1ccc(cc1)Oc1cc(ccc1OC)C[C@H]1c2cc(c(cc2CCN1C)O3)O4 [Product 44] | 0% after 7 days (at 0.1 μM) | −53 ± 6% | 2.3 ± 0.2 | 1.88 ± 0.03 µM | – | –
2 | CCN(CC)CCCNC(=S)N1CCc2cc3c4cc2[C@@H]1Cc1ccc(OC)c(c1)Oc1ccc(cc1)C[C@H]1c2c(cc(OC)c(c2O4)O3)CCN1C(=S)NCCCN(CC)CC [Product 41] | 0% after 7 days (at 0.1 μM) | 0% | 2.1 ± 0.1 | 0.96 ± 0.02 µM | – | –
3 | COc1ccc2cc1Oc1ccc(cc1)C[C@@H]1NCCc3cc(OC)c4c(c31)Oc1cc3c(cc1O4)CCN(C)[C@H]3C2 [Trilobine (1), trilobine] | −52% after 7 days | −37 ± 8% | 1.9 ± 0.1 | 1.19 ± 0.02 µM | −37% after 3 days | −53% after 21 days
